Data as given in ChEMBL document CHEMBL1156399, “A quinolone alkaloid with antioxidant activity from the aleurone layer of anthocyanin-pigmented rice” (J Nat Prod, 2001).
Values after ≈ are worked out from the molar mass of the structure shown.

test system: Radical scavenging activity; test: Antioxidant activity assessed as DPPH radical scavenging activity; assay type: functional

IC50 | SMILES
36.4 µg/mL (≈ 166 µM) | COC(=O)c1cc(=O)[nH]c2ccc(O)cc12
21.8 µg/mL (≈ 124 µM) | O=C1O[C@H]([C@@H](O)CO)C(O)=C1O [ASCORBIC ACID]

SMILES | IC50
COc1ccc(O)c(C(C)(C)C)c1.COc1ccc(O)cc1C(C)(C)C [BUTYLATED HYDROXYANISOLE] | 20.6 µg/mL
